Results: ChEMBL document CHEMBL1138495, “Inhibition of subgenomic hepatitis C virus RNA replication by acridone derivatives: identification of an NS3 helicase inhibitor” (J Med Chem, 2009)
In brackets after ≈: the same amount, converted by molar mass. Activity calls are given as the source filed them. The calls are words filed in the database; no cut-off is given here.

Legend:
Hepatitis C virus = assay: Antiviral activity against HCV infected in human HuH5.2 assessed as inhibition of viral RNA synthesis after 4 days by Steady-Glo-luciferase assay; type: functional, organism-based, Hepacivirus hominis; details: Huh-5-2, 96 h
[1] = Cytostatic activity against human HuH5.2 after 3 days by MTS/PMS assay; type: ADME, Huh-5-2; details: HuH5.2 cells
Hepacivirus hominis = assay: Inhibition of HCV recombinant NS5B RNA polymerase expressed in Escherichia coli up to 100 uM by liquid scintillation counter
[2] = Inhibition of ATPase activity of HCV […] expressed in Escherichia coli; parameters: species or system Hepacivirus hominis
[3] = system: Bovine viral diarrhea virus 1; assay: Antiviral activity against Bovine viral diarrhea virus infected in MDBK cells assessed as inhibition of virus-induced cytopathic effect after 4 to 5 days by microscopy; type: functional, organism-based; details: Bovine viral diarrhea virus isolates and strains
[4] = Cytotoxicity against MDBK cells after 3 days by MTS/PMS method; type: cell-based, Bos taurus; details: cattle

| Structure (SMILES) | EC50 (Hepatitis C virus) | CC50 at 72 h [1] | Activity (Hepacivirus hominis) | IC50 [2] | EC50 [3] | CC50 at 72 h [4] |
| --- | --- | --- | --- | --- | --- | --- |
| COc1cc(OC)c2c(=O)c3cc(N)c(N4CCN(c5ccccc5OC)CC4)cc3n(C)c2c1 | 16 µg/mL (≈ 33.7 µM) | > 50 µg/mL | inactive | > 1 mM |  |  |
| COc1ccc(C(=O)c2ccc(N3CCN(c4ccccn4)CC3)c(N)c2)c(OC)c1 | 6.6 µg/mL (≈ 15.8 µM) | 15 µg/mL (≈ 35.8 µM) | inactive | > 1 mM |  |  |
| COc1cc(OC)c2c(=O)c3cc(N)c(N4CCN(c5ccccn5)CC4)cc3[nH]c2c1 | 4 µg/mL (≈ 9.27 µM) | 19 µg/mL (≈ 44 µM) | inactive | > 1 mM |  |  |
| COc1cc(OC)c2c(=O)c3cc(N)c(N4CCN(c5ccc(C(F)(F)F)cn5)CC4)cc3n(C)c2c1 | > 50 µg/mL | > 50 µg/mL | inactive | > 1 mM |  |  |
| CCn1c2cc(Cl)c(N)cc2c(=O)c2c(O)cc(OC)cc21 | 4.5 µg/mL (≈ 14.1 µM) | > 50 µg/mL | inactive | > 1 mM |  |  |
| COc1cc(OC)c2c(=O)c3cc(N)c(N4CCN(c5ccccc5)CC4)cc3n(C)c2c1 | 9 µg/mL (≈ 20.2 µM) | 34 µg/mL (≈ 76.5 µM) | inactive | > 1 mM |  |  |
| CCn1c2cc(N3CCN(c4ccccn4)CC3)c(N)cc2c(=O)c2c(OC)cc(OC)cc21 | 4 µg/mL (≈ 8.7 µM) | 11 µg/mL (≈ 23.9 µM) | inactive | > 1 mM |  |  |
| Cn1ccc(=O)c2cc(N)c(N3CCN(c4ccccn4)CC3)cc21 | 11 µg/mL (≈ 32.8 µM) | > 33 µg/mL | inactive | > 1 mM |  |  |
| COc1cc(O)c2c(=O)c3cc(N)c(Cl)cc3n(C)c2c1 | 14 µg/mL (≈ 45.9 µM) | 41 µg/mL (≈ 135 µM) | inactive | > 1 mM | 0.7 µg/mL (≈ 2.3 µM) | 14 µg/mL (≈ 45.9 µM) |
| COc1cc(OC)c2c(=O)c3cc(N)c(N4CCN(c5ncccn5)CC4)cc3n(C)c2c1 | > 50 µg/mL | > 50 µg/mL | inactive | > 1 mM |  |  |
| CCn1c2cc(Cl)c(N)cc2c(=O)c2c(OC)cc(OC)cc21 | 5 µg/mL (≈ 15 µM) | 14 µg/mL (≈ 42.1 µM) | inactive | > 1 mM |  |  |
| Cn1c2cc(N3CCN(c4nc5ccccc5o4)CC3)c(N)cc2c(=O)c2c(O)cc(O)cc21 | 17 µg/mL (≈ 37.2 µM) | > 50 µg/mL | inactive | > 1 mM |  |  |
| COc1ccc2c(=O)c3cc(N)c(N4CCN(c5ccccn5)CC4)cc3n(C)c2c1 | 0.8 µg/mL (≈ 1.93 µM) | 11 µg/mL (≈ 26.5 µM) | inactive | > 1 mM |  |  |
| COc1cc(OC)cc(N(C)c2ccc(N)c(N3CCN(c4ccccn4)CC3)c2)c1 | 4.1 µg/mL (≈ 9.77 µM) | 7.2 µg/mL (≈ 17.2 µM) | inactive | > 1 mM |  |  |
| COc1cc(OC)c2c(=O)c3cc(N)c(OC)cc3n(C)c2c1 | 9 µg/mL (≈ 28.6 µM) | > 50 µg/mL | inactive | > 1 mM |  |  |
| COc1cc(OC)c2c(=O)c3cc(N)c(Cl)cc3[nH]c2c1 | 5.7 µg/mL (≈ 18.7 µM) | 13 µg/mL (≈ 42.7 µM) | inactive | > 1 mM |  |  |
| Nc1cc2c(=O)c3c(O)cc(O)cc3[nH]c2cc1Cl | 19 µg/mL (≈ 68.7 µM) | 25 µg/mL (≈ 90.4 µM) | inactive | > 1 mM |  |  |
| Cn1c2ccccc2c(=O)c2cc(N)c(N3CCN(c4ccccn4)CC3)cc21 | 4 µg/mL (≈ 10.4 µM) | 29 µg/mL (≈ 75.2 µM) | inactive | > 1 mM |  |  |
| CCOc1cc(OC)cc2c1c(=O)c1cc(N)c(N3CCN(c4ccccn4)CC3)cc1n2C | 4 µg/mL (≈ 8.7 µM) | > 50 µg/mL | inactive | > 1 mM |  |  |
| COc1cc2c(cc1N)c(=O)c1c(O)cc(O)cc1n2C | 5 µg/mL (≈ 17.5 µM) | 26 µg/mL (≈ 90.8 µM) | inactive | > 1 mM |  |  |

| Structure (SMILES) | EC50 (Hepatitis C virus) | CC50 at 72 h [1] | Activity (Hepacivirus hominis) | IC50 [2] | EC50 [3] | CC50 at 72 h [4] |
| --- | --- | --- | --- | --- | --- | --- |
| COc1cc(O)c2c(=O)c3cc(N)c(Cl)cc3[nH]c2c1 | 8 µg/mL (≈ 27.5 µM) | > 50 µg/mL | inactive | > 1 mM |  |  |
| Cn1c2cc(N3CCN(c4ccccc4)CC3)c(N)cc2c(=O)c2c(O)cc(O)cc21 | 4.4 µg/mL (≈ 10.6 µM) | 16.2 µg/mL (≈ 38.9 µM) | inactive | > 1 mM |  |  |
| COc1cc(O)c2c(=O)c3cc(N)c(OC)cc3n(C)c2c1 | 18 µg/mL (≈ 59.9 µM) | > 50 µg/mL | inactive | > 1 mM |  |  |
| COc1cc(OC)c2c(=O)c3cc(N)c(N4CCN(c5nc6ccccc6o5)CC4)cc3n(C)c2c1 | 27 µg/mL (≈ 55.6 µM) | > 50 µg/mL | inactive | > 1 mM |  |  |
| Cc1cc(C)c2c(=O)c3cc(N)c(N4CCN(c5ccccn5)CC4)cc3n(C)c2c1C | 5 µg/mL (≈ 11.7 µM) | > 50 µg/mL | inactive | > 1 mM |  |  |
| COc1cc2c(=O)c3cc(N)c(N4CCN(c5ccccn5)CC4)cc3n(C)c2cc1OC | 6 µg/mL (≈ 13.5 µM) | 14 µg/mL (≈ 31.4 µM) | inactive | > 1 mM |  |  |
| COc1cc(OCC(=O)O)c2c(=O)c3cc(N)c(N4CCN(c5ccccn5)CC4)cc3n(C)c2c1 | 35 µg/mL (≈ 71.5 µM) | > 50 µg/mL | inactive | > 1 mM |  |  |
| COc1ccc(C(=O)c2ccc(N3CCN(c4ccccn4)CC3)c(N)c2)c(O)c1 | 3.7 µg/mL (≈ 9.15 µM) | > 50 µg/mL | inactive | > 1 mM |  |  |
| COc1cc(OC)c2c(=O)c3cc(N)c(N4CCN(c5ccccn5)CC4)cc3n(CCC(C)C)c2c1 | 10 µg/mL (≈ 19.9 µM) | 10 µg/mL (≈ 19.9 µM) | inactive | > 1 mM |  |  |
| COc1cc(OC)c2c(=O)c3cc(F)c(N4CCN(c5ccccn5)CC4)cc3n(C)c2c1 | > 50 µg/mL | > 50 µg/mL | inactive | > 1 mM |  |  |
| CCn1c2cc(Cl)c(N)cc2c(=O)c2c(O)cc(O)cc21 | 5 µg/mL (≈ 16.4 µM) | > 50 µg/mL | inactive | > 1 mM |  |  |
| COc1cc(OC)c2c(=O)c3cc(N)c(Cl)cc3n(C)c2c1 | 20 µg/mL (≈ 62.7 µM) | > 50 µg/mL | inactive | > 1 mM | > 100 µg/mL | 20 µg/mL (≈ 62.7 µM) |
| COc1cc(OC)c2c(=O)c3cc(N)c(Cl)cc3n(CCC(C)C)c2c1 | > 50 µg/mL | > 50 µg/mL | inactive | > 1 mM |  |  |
| COc1cc(O)c2c(=O)c3cc(N)c(N4CCN(c5nc6ccccc6o5)CC4)cc3n(C)c2c1 | 50 µg/mL (≈ 106 µM) | > 50 µg/mL | inactive | > 1 mM |  |  |
| COc1cc(O)c2c(=O)c3cc(N)c(N4CCN(c5ccccc5)CC4)cc3n(C)c2c1 | 2.03 µg/mL (≈ 4.72 µM) | 8.5 µg/mL (≈ 19.7 µM) | inactive | > 1 mM |  |  |
| COc1cc(OC)c2c(=O)cc(-c3ccc(N4CCN(c5ccccn5)CC4)c(N)c3)n(C)c2c1 | > 50 µg/mL | > 50 µg/mL | inactive | > 1 mM |  |  |
| COc1cccc2c1c(=O)c1cc(N)c(N3CCN(c4ccccn4)CC3)cc1n2C | 12.5 µg/mL (≈ 30.1 µM) | 28.5 µg/mL (≈ 68.6 µM) | inactive | > 1 mM |  |  |
| COc1cc(OC)cc(N(C)c2cc(N3CCN(c4ccccn4)CC3)c(N)cc2C(=O)O)c1 | > 50 µg/mL | > 50 µg/mL | inactive | > 1 mM |  |  |
| CCCOc1cc(OC)cc2c1c(=O)c1cc(N)c(N3CCN(c4ccccn4)CC3)cc1n2C | 17 µg/mL (≈ 35.9 µM) | > 50 µg/mL | inactive | > 1 mM |  |  |
| COc1cc(OC)c2c(=O)c3cc(N(C)C)c(N4CCN(c5ccccn5)CC4)cc3n(C)c2c1 | 1 µg/mL (≈ 2.11 µM) | 3 µg/mL (≈ 6.33 µM) | inactive | > 1 mM |  |  |
